Where a name gives a salt, the structure may show the parent alone.
How the values were obtained:
BTK = BTK (Homo sapiens (Human), UniProt Q06187); assay: In Vitro BTK Kinase Assay: Btk-PolyGAT-LS Assay; type: biochemical; settings: active BTK enzyme 0.25 nM, ATP 10 μM, polyGAT 100 nM, 30 minutes
In short: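 Recombinant BTK (0.25 nM) phosphorylating 100 nM polyGAT at 10 μM ATP in Tris-HCl pH 7.5 buffer with MgCl2, DTT, Triton X-100 and casein, 30 min, then EDTA stop.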

[1] = test system: CD69 expression on CD19+ B cells in whole blood; assay: In Vitro Whole Blood CD69 Assay; type: cell-based, Human; settings: Homo sapiens, B-cell, human heparinized whole blood, anti-human IgD stimulation, percentage of CD19+ B cells expressing CD69; read-out: IC50
Protocol: In Vitro Whole Blood CD69 Assay
Human heparinized venous blood from health donors was aliquoted into 96-well plate and “spiked” with serial dilutions of formula I compounds in DMSO or with DMSO without drug. The final concentration of DMSO in all wells was 0.1%. The plate was incubated at 37° C. for 30 min. Drug-containing samples were stimulated with 0.1 μg/mL mouse anti-human IgD-dextran (1A62) or 20 μg/mL polyclonal rabbit F(ab′)2 anti-human IgD. Phosphate-buffered saline (PBS) was added to the negative control unstimulated sample and the plates were incubated overnight (18 to 22 hours) at 37° C. Cells were stained with fluorochrome-conjugated anti-CD19 and anti-CD69 antibodies. Lyse/fix solution was used to remove red blood cells by hypotonic lysis and to fix the remaining cells, which were then analyzed by flow cytometry. CD19+ B cells were gated and analyzed for CD69 expression. The percentage of B cells expressing CD69 was plotted versus the log 10 of the concentration of the drug and the best-fit curves (variable Hill slope) were generated to obtain the IC50 value.

Chain of BTK (Q06187 whole entry): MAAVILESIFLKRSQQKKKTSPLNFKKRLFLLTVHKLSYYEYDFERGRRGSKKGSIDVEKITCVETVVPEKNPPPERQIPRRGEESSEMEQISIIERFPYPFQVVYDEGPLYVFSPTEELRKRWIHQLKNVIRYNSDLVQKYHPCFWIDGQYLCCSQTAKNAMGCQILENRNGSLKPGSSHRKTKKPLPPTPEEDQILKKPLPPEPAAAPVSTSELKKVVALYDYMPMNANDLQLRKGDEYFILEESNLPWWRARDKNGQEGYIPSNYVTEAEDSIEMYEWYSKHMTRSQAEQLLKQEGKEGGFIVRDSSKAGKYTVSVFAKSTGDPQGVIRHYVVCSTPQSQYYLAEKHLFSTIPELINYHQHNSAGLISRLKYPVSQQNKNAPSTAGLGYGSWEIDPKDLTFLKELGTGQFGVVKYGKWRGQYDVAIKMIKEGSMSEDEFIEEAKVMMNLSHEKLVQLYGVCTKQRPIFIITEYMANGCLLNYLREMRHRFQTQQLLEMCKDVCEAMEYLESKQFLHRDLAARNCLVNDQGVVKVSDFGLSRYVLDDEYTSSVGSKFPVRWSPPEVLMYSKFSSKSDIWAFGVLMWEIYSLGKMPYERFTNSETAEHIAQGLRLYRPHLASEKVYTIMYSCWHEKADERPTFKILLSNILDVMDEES

Row | Structure (SMILES) | IC50 (BTK) | IC50 [1]
1 | Cc1cc(-c2ncnn3cc(-c4ccncc4)cc23)ccc1CNC(=O)c1noc(C(C)(C)C)n1 [Example 38, 5-(tert-butyl)-N-(2-methyl-4-(6-(pyridin-4-yl)pyrrolo[2,1-f][1,2,4]triazin-4-yl)benzyl)-1,2,4-oxadiazole-3-carboxamide] | ≤ 1 nM | 100 to 1000 nM
2 | CC(C)(C)c1nc(C(=O)NCc2ccc(-c3ncnn4cc(N5CCOCC5)cc34)cc2C(F)(F)F)no1 [Example 34, 5-(tert-butyl)-N-(4-(6-morpholinopyrrolo[2,1-f][1,2,4]triazin-4-yl)-2-(trifluoromethyl)benzyl)-1,2,4-oxadiazole-3-carboxamide hydrochloride] | ≤ 1 nM | 100 to 1000 nM
3 | Cc1cc(-c2ncnn3cc(N4CCN(C5COC5)CC4)cc23)ccc1CNC(=O)c1noc(C(C)(C)C)n1 [Example 32, 5-(tert-butyl)-N-(2-methyl-4-(6-(4-(oxetan-3-yl)piperazin-1-yl)pyrrolo[2,1-f][1,2,4]triazin-4-yl)benzyl)-1,2,4-oxadiazole-3-carboxamide trifluoroacetate] | ≤ 1 nM | 100 to 1000 nM
